From patent publication US20080187512A1, “Treatment for spinal muscular atrophy” (Academia Sinica, priority 2007, published 2008)

Key:
Format in all cases: cell-based, mouse
JNK (pT183/pY185) = assay: Signaling pathway screen in SMN2-NSC34 cells
Jak2 (pY1007/pY1008) = assay: Signaling pathway screen in SMN2-NSC34 cells; for Jak2 (pY1007/pY1008) cellular response: key: −: decreasing; +/−: no activation; +: slight activation; ++: minor activation; +++: significant activation
Method: (§1) Western blot analysis. Cells treated by dsRNA, compounds or Stat5A1*6 transfected were detached by scraping, pelletting and rinsing in PBS. Cell pellets were collected after centrifugation and lysed on ice in modified RIPA buffer (50 mM Tris-HCl (pH7.4), 1% NP-40, 0.25% deoxycholic acid, 0.15M NaCl, 1 mM EDTA, 1 mM PMSF/NaF/sodium orthovanadate, and protease inhibitors cocktail (Roche, Mannheim, Germany) for 30 min. After centrifugation, the supernatants were collected and kept frozen at −20° C. Protein concentrations were determined by Bio-Rad protein assay method. For Western blot analysis, protein samples were boiled for 5 min and electrophoresed on 8% or 10% SDS-polyacrylamide gel in a 1× running buffer (25 mM Tris, 192 mM glycine, 3.4 mM SDS, pH 8.3) and subsequently electrotransferred to Polyvinylidene Fluoride tansfer membrane (Pall, Pensacola, Fla.) using a TE 22 mini-tank transfer unit (Amersham Biosciences, San Francisco, Calif.) at 35 volts overnight in transfer buffer (25 mM Tris, 192 mM glycine, 20% methanol, pH8.3). The blotting membranes were incubated in blocking solution (PBS, 5% non-fat milk, 0.2% Tween-20) for 1 hour at room temperature, and then incubated in the same solution with the primary antibody (human-specific SMN/1:1000; SMN/1:5000, Transduction Laboratories, Lexington, Ky.; phospho-Stat5a/b/1:1000, Cell signaling, Beverly, Mass.; phospho-Jak2/1:1000, Upstate, Lake Placid, N.Y.; Flag BioM2/1:1000, Sigma, St. Louis, MO; c-myc/1:200, Santa Cruz Biotech, Santa Cruz, Calif.; α-Tubilin/1:10000, Upstate, Lake Placid, N.Y., MO), overnight at 4° C. The membranes were washed and incubated in the blocking solution with the proper HRP-conjugated secondary antibody at 1/5000 dilution (Chemicon, Temecula, Calif.) for 1 hour at room temperature. After washing three times in PBS containing 0.1% Tween-20, the signals were visualized by autoradiography (Fuji Medical X-ray film, Fuji Photos, Tokyo) using enhanced chemi-luminescence (ECL detection system; Perkin-Elmer, Boston, Calif.). Western blot quantification was performed by scanning the auto-radiographs with a computerized densitometer. Signal intensities were determined by densitometry analysis (Fuji film LAS-1000 plus pictography) using the program Phoreticx 1D (Phoreticx International).
(§2) Therefore, TSA, aclarubicin and sodium vanadate all induce the activation of Stat5A in motor neuron-like NSC34 cells.

SMN2 = SMN2 splicing pattern, semi-quantitative RT-PCR in SMN2-NSC34 cells; parameters: key to SMN2 splicing pattern SMN2-NSC34: −: no effect; +: effective; +++: most effective
Method: Cell culture and chemical/dsRNA treatment. Mouse embryonic fibroblasts (MEFs) were prepared using the standard protocol. Briefly, E13.5 day embryo was isolated; the uterine deciduas were cut away, and the yolk sac was removed. The embryo was then scraped out to remove non-fibroblastic tissue, and the head severed for genotyping. Embryo body was minced in 0.25% Trypsin-EDTA and incubated for 30 min. It was then added to MEF culture media, and the cell suspension spun for ˜5 min at 1,000 rpm in the tissue culture centrifuge to pellet cells. The supernatant was aspirated off and the cell pellet immediately resuspended in 10 mL of fresh MEF culture media. The MEFs were allowed to reach confluency so the cells could be passaged for further experiments. Cultured MEFs and SMN2-NSC34 cells were maintained in Dulbecco's modified Eagle medium (Invitrogen, Carlsbad, Calif.) containing 10% heat-inactivated fetal bovine serum (Hyclone, Logan, Utah) and 1% penicillin-streptomycin (Invitrogen, Carlsbad, Calif.) and were incubated at 37° C. in a 5% CO2 humidified atmosphere. The cells were plated the day preceding treatment with each chemical and harvested at the indicated time.
Semi-quantitative PCR/RT-PCR. The genomic DNA from E13.5 SMA embryos was extracted. A specific primer pair, SMN forward 5′-[…]-3′ (SEQ ID NO:21) and SMN backward 5′-[…]-3′ (SEQ ID NO:22), was designed for recognition of both murine Smn and human SMN2. The PCR program initially started with a 95° C. denaturation for 10 min, followed by 19 to 26 cycles of 95° C./1 min. 53° C./1.5 min, 72° C./2 min to assay the linear range for both Smn and SMN2. For RT-PCR assay, total RNA was extracted at indicated time points from SMN2-NSC34 cells with sodium vanadate, TSA, and aclarubicin treatment or with an increasing amount of Stat5A1*6 transfection by using the TRizol reagent (Invitrogen, Carlsbad, Calif.). To amplify the exon7 inclusion/exclusion form of SMN2 transcripts, RT-PCR were performed using a primer set P5P6 as previously described (15). The transcript from the mouse glyceraldehyde-3-phosphate dehydrogenase (Gapdh) gene or the β-Actin gene was amplified using the primer pairs: Gapdh forward: 5′-[…]-3′ (SEQ ID NO:23), and backward: 5′-[…]-3′ (SEQ ID NO:24) (56° C.), and β-Actin forward: 5′-[…]-3′ (SEQ ID NO:25), and backward 5′-[…]-3′ (SEQ ID NO:26) (59° C.), and this allowed control of equal amounts of template. […] The gel images were digitally captured with a CCD camera and analyzed with the Alphalmager™. […] Relative total SMN2 transcript levels were determined from Stat5A1*6 transfected SMN2-NSC34 cells in a minimum of three independent experiments. Differences in ratios were determined to be significant by an independent two-tailed t-test, with *, P<0.05, **, P<0.005, ***, p<0.001.

Stat5 (pT694) = assay: Signaling pathway screen in SMN2-NSC34 cells; parameters: Stat5 (pT694) cellular response: key: −: decreasing; +/−: no activation; +: slight activation; ++: minor activation; +++: significant activation
Method: as §1, §2

Substance: Sodium vanadate
- JNK (pT183/pY185) cellular response (JNK (pT183/pY185); 4 hrs): +/−
- JNK (pT183/pY185) cellular response (JNK (pT183/pY185); 8 hrs): +
- Jak2 (pY1007/pY1008) cellular response (Jak2 (pY1007/pY1008)): + and ++
- Jak2 activation (Jak2 (pY1007/pY1008)): found activated
- SMN2 splicing pattern SMN2-NSC34 (SMN2): +++
- efficiency in increasing full length SMN2 transcripts relative to the other compounds (SMN2): most efficient
- treatment time after which the full length SMN2 expression level was enhanced (SMN2): 2 to 4 h
- Stat5 (pT694) cellular response (Stat5 (pT694)): ++ and +++
- Stat5 phosphorylation status at 8 hours (Stat5 (pT694)): remained activated
- phosphorylation level of Stat5 increased compared to control cells (Stat5 (pT694)): about 6 fold
